Results taken from PubChem BioAssay AID2060486 (Molecular Pharmacology Branch, DTP, NCI, 2025).

Test system: IGROV1 complex spheroids (HUVEC, MSC), viability % test/control
Assay: Anticancer human tumor IGROV1 cell line growth inhibition [GQUAD];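 also: spheroids exposed to compounds for 7 days before readout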;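 as to viability, T/C: 100% = DMSO vehicle control viability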
Conditions: for IC50: curve of first compound; for viability, T/C: stronger effect = lower value
Summary of the method: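 Multi-cell-type spheroids of tumor cells with HUVEC and mesenchymal stem cells, treated with drug combinations. Concentrations descend in half-log steps from near clinical Cmax, or from 10 microM where Cmax is unknown; viability read-out.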

[1] = second compound 0.0316 µM, first compound 0.0316 µM
[2] = second compound 0.0316 µM, first compound 0.1 µM
[3] = second compound 0.0316 µM, first compound 0.316 µM
[4] = second compound 0.0316 µM, first compound 1 µM
[5] = second compound 0.0316 µM, first compound 3.16 µM
[6] = second compound 0.0316 µM, first compound 10 µM
[7] = second compound 0.1 µM, first compound 0.0316 µM
[8] = second compound 0.1 µM, first compound 0.1 µM
[9] = second compound 0.1 µM, first compound 0.316 µM
[10] = second compound 0.1 µM, first compound 1 µM
[11] = second compound 0.1 µM, first compound 3.16 µM
[12] = second compound 0.1 µM, first compound 10 µM
[13] = second compound 0.316 µM, first compound 0.0316 µM
[14] = second compound 0.316 µM, first compound 0.1 µM
[15] = second compound 0.316 µM, first compound 0.316 µM
[16] = second compound 0.316 µM, first compound 1 µM
[17] = second compound 0.316 µM, first compound 3.16 µM
[18] = second compound 0.316 µM, first compound 10 µM
[19] = second compound 1 µM, first compound 0.0316 µM
[20] = second compound 1 µM, first compound 0.1 µM
[21] = second compound 1 µM, first compound 0.316 µM
[22] = second compound 1 µM, first compound 1 µM
[23] = second compound 1 µM, first compound 3.16 µM
[24] = second compound 1 µM, first compound 10 µM
[25] = second compound 3.16 µM, first compound 0.0316 µM
[26] = second compound 3.16 µM, first compound 0.1 µM
[27] = second compound 3.16 µM, first compound 0.316 µM
[28] = second compound 3.16 µM, first compound 1 µM
[29] = second compound 3.16 µM, first compound 3.16 µM
[30] = second compound 3.16 µM, first compound 10 µM
[31] = second compound 10 µM, first compound 0.0316 µM
[32] = second compound 10 µM, first compound 0.1 µM
[33] = second compound 10 µM, first compound 0.316 µM
[34] = second compound 10 µM, first compound 1 µM
[35] = second compound 10 µM, first compound 3.16 µM
[36] = second compound 10 µM, first compound 10 µM

## CC1COCCN1c1cc(C2(S(C)(=N)=O)CC2)nc(-c2ccnc3[nH]ccc23)n1 (centres undefined) + Cc1[nH]c2ccc(F)cc2c1-c1nc2c3cccnc3c3ncccc3c2[nH]1
Second compound 0.0316 µM
  IC50: 986 nM
Second compound 0.1 µM
  IC50: 884 nM
Second compound 0.316 µM
  IC50: 426 nM
Second compound 1 µM
  IC50: < 31.6 nM
Second compound 3.16 µM
  IC50: < 31.6 nM
Second compound 10 µM
  IC50: < 31.6 nM
[1]
  viability, T/C: 80%
[2]
  viability, T/C: 86.7%
[3]
  viability, T/C: 80.4%
[4]
  viability, T/C: 49.2%
[5]
  viability, T/C: 14.5%
[6]
  viability, T/C: 7.71%
[7]
  viability, T/C: 87.4%
[8]
  viability, T/C: 98.1%
[9]
  viability, T/C: 74.4%
[10]
  viability, T/C: 48.9%
[11]
  viability, T/C: 13.7%
[12]
  viability, T/C: 6.84%
[13]
  viability, T/C: 81.5%
[14]
  viability, T/C: 74.3%
[15]
  viability, T/C: 60.9%
[16]
  viability, T/C: 21.1%
[17]
  viability, T/C: 7.66%
[18]
  viability, T/C: 3.74%
[19]
  viability, T/C: 4.68%
[20]
  viability, T/C: 4.27%
[21]
  viability, T/C: 4.11%
[22]
  viability, T/C: 3.67%
[23]
  viability, T/C: 4.03%
[24]
  viability, T/C: 2.64%
[25]
  viability, T/C: 4.14%
[26]
  viability, T/C: 5.15%
[27]
  viability, T/C: 4.92%
[28]
  viability, T/C: 4.78%
[29]
  viability, T/C: 3.97%
[30]
  viability, T/C: 2.94%
[31]
  viability, T/C: 3.9%
[32]
  viability, T/C: 4.76%
[33]
  viability, T/C: 5.04%
[34]
  viability, T/C: 3.7%
[35]
  viability, T/C: 3.55%
[36]
  viability, T/C: 2.63%

## CC(C)(O)C1CCC(Nc2ccc3ncc(-c4cccc(C(F)(F)F)c4)n3n2)CC1 (centres undefined) + Cc1cnc(CNC(=O)c2c(=O)c3ccc(N4CCCN(C)CC4)nc3n3c2sc2ccccc23)cn1
Second compound 0.0316 µM
  IC50: 429 nM
Second compound 0.1 µM
  IC50: < 31.6 nM
Second compound 0.316 µM
  IC50: < 31.6 nM
Second compound 1 µM
  IC50: < 31.6 nM
Second compound 3.16 µM
  IC50: < 31.6 nM
Second compound 10 µM
  IC50: < 31.6 nM
[1]
  viability, T/C: 71.3%
[2]
  viability, T/C: 68.4%
[3]
  viability, T/C: 55.7%
[4]
  viability, T/C: 34%
[5]
  viability, T/C: 20.2%
[6]
  viability, T/C: 16.9%
[7]
  viability, T/C: 35.6%
[8]
  viability, T/C: 32.7%
[9]
  viability, T/C: 33.9%
[10]
  viability, T/C: 26%
[11]
  viability, T/C: 14.1%
[12]
  viability, T/C: 10.2%
[13]
  viability, T/C: 24.9%
[14]
  viability, T/C: 25.8%
[15]
  viability, T/C: 17.4%
[16]
  viability, T/C: 20.5%
[17]
  viability, T/C: 14.8%
[18]
  viability, T/C: 11.4%
[19]
  viability, T/C: 17%
[20]
  viability, T/C: 17.6%
[21]
  viability, T/C: 16.2%
[22]
  viability, T/C: 16.5%
[23]
  viability, T/C: 9.63%
[24]
  viability, T/C: 7.48%
[25]
  viability, T/C: 12.5%
[26]
  viability, T/C: 9.36%
[27]
  viability, T/C: 10.4%
[28]
  viability, T/C: 10.4%
[29]
  viability, T/C: 7.96%
[30]
  viability, T/C: 1.27%
[31]
  viability, T/C: 10%
[32]
  viability, T/C: 9.42%
[33]
  viability, T/C: 9.42%
[34]
  viability, T/C: 5.73%
[35]
  viability, T/C: 8.46%
[36]
  viability, T/C: 0.12%
